Measurements: patent publication US20060269579A1, “Compositions for treating osteoarthritis” (Musculoskeletal Research LLC, priority 2005, published 2006)

Key:
synovial lining cells = conditions: human
[1] = test system: effect of IL-1 on synovial cells; conditions: cited from earlier work
connexin 43 = connexin 43 (Homo sapiens, UniProt P17302); conditions: Leybaert et al. 2003; cited from earlier work
Sequence of connexin 43 (P17302 2-382 limits assumed): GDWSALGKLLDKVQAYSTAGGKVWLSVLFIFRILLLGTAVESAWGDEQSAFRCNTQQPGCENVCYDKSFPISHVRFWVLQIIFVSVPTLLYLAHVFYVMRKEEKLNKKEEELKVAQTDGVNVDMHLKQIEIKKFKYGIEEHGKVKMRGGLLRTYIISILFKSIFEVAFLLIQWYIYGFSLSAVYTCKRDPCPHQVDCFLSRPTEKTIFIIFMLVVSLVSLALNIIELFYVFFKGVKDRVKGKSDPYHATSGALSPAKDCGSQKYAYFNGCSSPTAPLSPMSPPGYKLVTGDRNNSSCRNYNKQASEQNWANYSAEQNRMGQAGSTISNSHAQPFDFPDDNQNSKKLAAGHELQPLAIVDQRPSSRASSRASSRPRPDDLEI

Molecule | concentration in compositions that must not be exceeded (synovial lining cells) [µg/mL] | total dose that must not be exceeded (synovial lining cells) [mg] | interference with the effect of IL-1 on synovial cells [1] | block of connexin 43 (connexin 43)
COC(=O)C1=C(C)NC(C)=C(C(=O)OC)C1c1ccccc1[N+](=O)[O-] [nifedipine] | ≤ 2000 | ≤ 2.0 | – | –
CCN(CC)CCNC(=O)c1ccc(N)cc1 [procainamide] | ≤ 2000 | ≤ 2.0 | – | –
COc1ccc(CCN(C)CCCC(C#N)(c2ccc(OC)c(OC)c2)C(C)C)cc1OC (stereo not drawn) [verapamil] | ≤ 2000 | ≤ 2.0 | capable of interfering with the effect of IL-1 on synovial cells | –
SRPTEKTIFII [undecapeptide, connexin 43 residue numbers 204-214, mimetic peptide] | – | – | – | able to block connexin 43
VCYDKSFPISHVR [synthetic tridecapeptide, connexin 43 residue numbers 63-75, mimetic peptide] | – | – | – | able to block connexin 43
